Test results as given in patent publication US8455649B2, “Insecticidal substituted azinyl derivatives” (Dow AgroSciences, LLC, priority 2007, dated 2013).
Like-named read-outs stand apart in the source and are kept apart here.

Columns and labels:
[1] = system: Corn Earworm (Helicoverpa zea); assay: Insecticidal diet-surface test for corn earworm; type: in vivo; settings: 120 h, read-out: HELIZE AVG % Mortality (50 μg/cm^2)
In short: (§1)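 Second-instar larvae placed on lepidopteran diet surface-treated with 50 μL of 2000 ppm compound in 9 acetone:1 water (stated as 50 μg/cm^2), eight wells per species. Held 5 days at 25° C, 50-55% RH, 16:8 h light:dark; mortality of 8 larvae scored as percent control.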

[2] = system: Beet Armyworm (Spodoptera exigua); assay: Insecticidal diet-surface test for beet armyworm; type: in vivo; settings: 120 h, read-out: LAPHEG AVG % Mortality (50 μg/cm^2)
In short: as §1

[3] = second-instar larvae on treated diet, 50 μg/cm^2 on diet surface, 5 days after treatment, 8 insects per treatment

SMILES	mortality at 50 µg/cm2 [1, 3] [%]	mortality at 50 µg/cm2 [2, 3] [%]	mortality at 50 µg/cm2 [1] [%]	mortality at 50 µg/cm2 [2] [%]
CN(C(=O)Nc1nc(OCC(F)(F)F)cc(OCC(F)(F)F)n1)c1ccc(F)cn1 [Compound 125]	100	88	–	–
CN(C(=S)Nc1nc(OCC(F)(F)F)cc(OCC(F)(F)F)n1)c1ccc(C(F)(F)F)cc1 [Compound 131, N′-[4,6-bis(2,2,2-trifluoroethoxy)pyrimidin-2-yl]-N-methyl-N-[4-(trifluoromethyl)phenyl]thiourea]	100	100	–	–
CN(C(=O)Nc1nc(OCC(F)(F)F)cc(OCC(F)(F)F)n1)c1ccc(Cl)cc1Cl [Compound 149]	100	100	–	–
CN(C(=O)Nc1cc(C(F)(F)F)cc(OCC(F)(F)F)n1)c1ccc(Br)nc1 [Compound 169]	100	100	–	–
Cc1c(OCC(F)(F)F)nc(NC(=O)Nc2ccc(Br)cc2)nc1OCC(F)(F)F [Compound 139]	88	88	–	–
CN(C(=O)Nc1cc(C(F)(F)F)cc(OCC(F)(F)F)n1)c1ccc(C(F)(F)F)cc1 [Compound 162]	100	100	–	–
CN(C(=O)Nc1nc(OCC(F)(F)F)cc(OCC(F)(F)F)n1)c1ccc(Br)cc1C(F)(F)F [Compound 155]	100	50	–	–
CC(=O)OCN(C(=O)Nc1ccc(C(F)(F)F)cc1)c1nc(OCC(F)(F)F)cc(OCC(F)(F)F)n1 [Compound 13]	100	100	–	–
CN(C(=O)Nc1nc(OCC(F)(F)F)cc(OCC(F)(F)F)c1F)c1ccc(C(F)(F)F)cc1 [Compound 184]	100	100	–	–
CCOC(=O)N(C(=O)N(COCc1ccccc1)c1nc(OCC(F)(F)F)cc(OCC(F)(F)F)n1)c1ccc(C(F)(F)F)cc1 [Compound 36]	–	100	100	–
O=C(Nc1ccc(OC(F)(F)F)cc1)N(COCc1ccccc1)c1nc(OCC(F)(F)F)cc(OCC(F)(F)F)n1 [Compound 43]	100	100	–	–
CN(C(=O)Nc1cc(OCC(F)(F)F)nc(OCC(F)(F)F)n1)c1ccc(Br)cc1 [Compound 108]	100	100	–	–
O=C(Nc1ccc(OC(F)(F)F)cc1)Nc1cc(OCC(F)(F)F)nc(OCC(F)(F)F)n1 [Compound 115]	75	38	–	–
CN(C(=O)Nc1nc(OCC(F)(F)F)cc(OCC(F)(F)F)n1)c1ccc(Br)c(Cl)c1 [Compound 84]	100	100	–	–
CN(C(=O)Nc1nc(OCC(F)(F)F)cc(OCC(F)(F)F)n1)c1ccc(I)cc1 [Compound 81]	100	100	–	–
O=C(Nc1ccc(C(F)(F)F)cc1)Nc1nc(OCC(F)F)cc(OCC(F)F)n1 [Compound 2]	100	100	–	–
CCOCN(C(=O)Nc1nc(OCC(F)(F)F)cc(OCC(F)(F)F)n1)c1ccc(Br)cc1 [Compound 74]	100	100	–	–
O=C(Nc1ccc(C(F)(F)C(F)(F)F)cc1)Nc1nc(OCC(F)(F)F)cc(OCC(F)(F)F)n1 [Compound 151]	100	100	–	–
O=C(Nc1ccc(OC(F)(F)C(F)F)cc1)Nc1nc(OCC(F)(F)F)cc(OCC(F)(F)F)n1 [Compound 14]	100	100	–	–
CCOC(=O)N(C(=O)Nc1nc(OCC(F)(F)F)cc(OCC(F)(F)F)n1)c1ccc(C(F)(F)F)cc1 [Compound 35]	–	100	100	–
CN(C(=O)Nc1ccc(OC(F)(F)F)cc1)c1nc(OCC(F)(F)F)cc(OCC(F)(F)F)n1 [Compound 10]	0	100	–	–
CCN(C(=O)Nc1nc(OCC(F)(F)F)cc(OCC(F)(F)F)n1)c1ccc(Br)nc1 [Compound 46]	100	100	–	–
O=C(Nc1ccc(OC(F)=C(Cl)Cl)cc1)Nc1nc(OCC(F)(F)F)cc(OCC(F)(F)F)n1 [Compound 16]	0	100	–	–
O=C(Nc1ccc(C(F)(F)F)cc1)Nc1nc(OCC(F)(F)C(F)(F)F)cc(OCC(F)(F)C(F)(F)F)n1 [Compound 174]	100	0	–	–
CN(C(=O)Nc1nc(OCC(F)(F)F)c(Cl)c(OCC(F)(F)F)n1)c1ccc(OC(F)(F)F)cc1 [Compound 138]	100	100	–	–
O=C(NNc1ccc(Cl)cc1)Nc1nc(OCC(F)(F)F)cc(OCC(F)(F)F)n1 [Compound 9]	88	100	–	–

SMILES	mortality at 50 µg/cm2 [1, 3] [%]	mortality at 50 µg/cm2 [2, 3] [%]	mortality at 50 µg/cm2 [1] [%]	mortality at 50 µg/cm2 [2] [%]
CN(C(=O)Nc1nc(OCC(F)(F)F)cc(OCC(F)(F)F)n1)c1ccc(C(F)(F)F)c(F)c1 [Compound 154]	100	100	–	–
CN(C(=O)Nc1nc(OCC(F)(F)F)cc(OCC(F)(F)F)n1)c1cc(F)c(Br)cc1F [Compound 182]	100	100	–	–
O=C1CN(c2ccc(OC(F)(F)F)cc2)C(=O)N1c1nc(OCC(F)(F)F)cc(OCC(F)(F)F)n1 [Compound 30]	100	88	–	–
O=C(Nc1ccc(Br)nc1)Nc1nc(OCC(F)(F)F)c(Cl)c(OCC(F)(F)F)n1 [Compound 146]	100	100	–	–
O=C(Nc1nc(OCC(F)(F)F)cc(OCC(F)(F)F)n1)Nc1c(Cl)cc(Br)cc1Cl [Compound 180]	100	100	–	–
CN(C(=O)Nc1nc(OCC(F)(F)C(F)F)cc(OCC(F)(F)C(F)F)n1)c1ccc(C(F)(F)F)cc1 [Compound 177]	100	100	–	–
[2H]C([2H])([2H])N(C(=O)Nc1nc(OCC(F)(F)F)cc(OCC(F)(F)F)n1)c1ccc(C(F)(F)F)cc1 [Compound 96]	100	100	–	–
CN(C(=O)Nc1nc(OCC(F)(F)F)cc(OCC(F)(F)F)n1)c1ccc(C#N)cn1 [Compound 128]	100	88	–	–
O=C(Nc1ccc(Br)cc1)Nc1nc(OCC(F)(F)F)c(Cl)c(OCC(F)(F)F)n1 [Compound 137]	100	88	–	–
N#Cc1ccc(NC(=O)Nc2nc(OCC(F)(F)F)cc(OCC(F)(F)F)n2)cc1Cl [Compound 55]	–	–	100	0
O=C(Nc1ccc(OC(F)(F)F)cc1)Nc1nc(OCC(F)(F)F)cc(OCC(F)(F)F)n1 [Compound 3, N-(4-trifluoromethoxyphenyl)-N′-[4,6-(2,2,2-trifluoroethoxy)pyrimidin-2-yl]urea]	100	100	–	–
CN(C(=O)Nc1nc(OCC(F)(F)F)cc(OCC(F)(F)F)n1)c1ccc(F)cc1F [Compound 150]	75	100	–	–
O=C(Nc1ccc(C(F)(F)F)cc1)Nc1nc(OCC(F)(F)F)cc(OCC(F)(F)F)n1 [Compound 1, N′-[4,6-bis(2,2,2-trifluoroethoxy)pyrimidin-2-yl]-N-[4-(trifluoro-methyl)phenyl]urea]	100	100	–	–
CCOCN(C(=O)Nc1nc(OCC(F)(F)F)cc(OCC(F)(F)F)n1)c1ccc(C(F)(F)F)cc1 [Compound 34, N′-[4,6-Bis(2,2,2-trifluoroethoxy)pyrimidin-2-yl]-N-ethoxymethyl-N-(4-trifluoromethylphenyl)urea]	100	100	–	–
O=C(Nc1ccc(C(F)(F)F)nc1)Nc1nc(OCC(F)(F)F)c(Cl)c(OCC(F)(F)F)n1 [Compound 135]	100	100	–	–
O=C(Nc1ccc(C(F)(F)F)c(F)c1)Nc1nc(OCC(F)(F)F)cc(OCC(F)(F)F)n1 [Compound 78]	100	100	–	–
O=C(Nc1ccc(Br)nc1)Nc1cc(C(F)(F)F)cc(OCC(F)(F)F)n1 [Compound 171]	100	100	–	–
O=C(Nc1ccc(C(F)(F)F)cc1)Nc1cc(OCC(F)(F)F)nc(OCC(F)(F)F)n1 [Compound 105]	0	100	–	–
O=C(Nc1nc(OCC(F)(F)F)cc(OCC(F)(F)F)n1)N(O)c1ccc(Cl)cc1 [Compound 64, N′-[4,6-bis(2,2,2-trifluoroethoxy)pyrimidin-2-yl]-N-(4chlorophenyl)-N-hydroxyurea]	100	100	–	–
CN(C(=S)Nc1nc(OCC(F)(F)F)cc(OCC(F)(F)F)n1)c1ccc(Br)cc1 [Compound 132]	100	100	–	–
CN(C(=O)Nc1nc(OCC(F)(F)F)cc(OCC(F)(F)F)n1)c1ccc(C(F)(F)F)cc1 [Compound 31]	100	100	–	–
O=C(Nc1nc(OCC(F)(F)F)cc(OCC(F)(F)F)n1)Nc1ccccc1OC(F)(F)F [Compound 134]	100	100	–	–
CN(C(=O)Nc1cc(OCC(F)(F)F)nc(OCC(F)(F)F)n1)c1ccc(C(F)(F)F)cc1 [Compound 107]	100	100	–	–
CN(C(=O)Nc1nc(OCC(F)(F)F)cc(OCC(F)(F)F)n1)c1ccc(Br)c(C(F)(F)F)c1 [Compound 181]	100	100	–	–
CN(C(=O)Nc1cc(C(F)(F)F)cc(OCC(F)(F)F)n1)c1ccc(C(F)(F)F)nc1 [Compound 170]	100	75	–	–
